# Laboratory results taken from the Kinase Knowledgebase extract (Sharma et al. 2016).
# Biological target: PIK3CA (human) (UniProt P42336)
# Assay: Assessment of PIK3CA Kinase Activity
# Chain of PIK3CA (human) (P42336 whole entry, looked up): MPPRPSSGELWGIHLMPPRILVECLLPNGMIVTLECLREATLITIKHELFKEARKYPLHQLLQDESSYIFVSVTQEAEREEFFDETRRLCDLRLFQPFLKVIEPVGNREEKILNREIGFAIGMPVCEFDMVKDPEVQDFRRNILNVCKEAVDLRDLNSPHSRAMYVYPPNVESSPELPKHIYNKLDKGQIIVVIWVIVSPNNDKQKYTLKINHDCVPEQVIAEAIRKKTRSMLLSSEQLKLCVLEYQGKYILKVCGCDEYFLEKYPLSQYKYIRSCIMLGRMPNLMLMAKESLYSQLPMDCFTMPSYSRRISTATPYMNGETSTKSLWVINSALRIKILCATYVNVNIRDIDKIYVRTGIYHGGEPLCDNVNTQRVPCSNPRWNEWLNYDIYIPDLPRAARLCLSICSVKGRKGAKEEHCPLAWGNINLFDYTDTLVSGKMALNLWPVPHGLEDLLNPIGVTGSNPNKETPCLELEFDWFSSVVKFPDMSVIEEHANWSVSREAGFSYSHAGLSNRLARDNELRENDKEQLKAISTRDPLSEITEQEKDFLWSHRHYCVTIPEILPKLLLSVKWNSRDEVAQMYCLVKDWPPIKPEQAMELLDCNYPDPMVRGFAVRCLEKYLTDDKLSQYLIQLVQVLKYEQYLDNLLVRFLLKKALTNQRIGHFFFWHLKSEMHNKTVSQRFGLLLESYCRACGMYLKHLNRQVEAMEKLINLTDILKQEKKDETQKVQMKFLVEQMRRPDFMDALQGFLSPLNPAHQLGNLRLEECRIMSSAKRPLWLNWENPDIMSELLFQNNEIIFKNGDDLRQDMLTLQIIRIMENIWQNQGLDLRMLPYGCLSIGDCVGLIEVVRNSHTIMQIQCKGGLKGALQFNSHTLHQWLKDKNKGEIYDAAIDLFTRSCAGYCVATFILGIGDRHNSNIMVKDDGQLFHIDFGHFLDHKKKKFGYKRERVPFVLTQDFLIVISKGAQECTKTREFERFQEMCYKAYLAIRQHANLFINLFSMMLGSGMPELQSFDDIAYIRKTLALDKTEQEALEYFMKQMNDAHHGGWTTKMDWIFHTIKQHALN
row,SMILES,IC50 [nM]
1,CC(C)N(CCO)C(=O)c1nc2c(s1)CCOc1cc(-c3ccc(N4CCOCC4)nc3)ccc1-2,< 1000
2,CC(C)n1ncnc1-c1nc2c(s1)CCOc1ccc(-c3cc[nH]c(=O)c3)cc1-2,< 1000
3,COc1ncccc1-c1ccc2c(c1)-c1nc(C(=O)N(CCO)C(C)C)sc1CCO2,< 1000
4,CC(C)n1ccnc1-c1nc2c(s1)CCOc1cc(-c3cnn(CCO)c3)ccc1-2,< 1000
5,O=C(O)Cn1cc(-c2ccc3c(c2)OCCc2sc(-c4ncnn4CC(F)(F)F)nc2-3)cn1,< 1000
6,CC(C)Oc1ncccc1-c1ccc2c(c1)-c1nc(-c3ncnn3C(C)C)sc1CCO2,< 1000
7,C[C@@H]1CCN(C(=O)c2nc3c(s2)CCOc2cc(-c4cn[nH]c4)ccc2-3)C1,< 1000
8,CC(C)Nc1ccc2c(n1)-c1sc(-c3ncnn3-c3ccc(F)cc3F)cc1CCO2,< 1000
9,CC(C)n1ncnc1-c1nc2c(s1)CCOc1cc(C3CN(S(=O)(=O)CCN(C)C)C3)ccc1-2,< 1000
10,CNC(=O)c1ccc2c(c1)OCCc1cc(C(=O)N(C)c3cc(C(=O)NCCO)ccc3Cl)sc1-2,< 1000
11,Fc1ccc(-n2ncnc2-c2cc3c(s2)-c2nc(NC4COC4)ccc2OCC3)c(F)c1,< 1000
12,CNC(=O)Cn1cccc(-c2ccc3c(c2)-c2nc(-c4ncnn4C(C)C)sc2CCO3)c1=O,< 1000
13,CCNC(=O)NCc1ccc2c(c1)OCCc1sc(-c3nc(C)nn3C(C)C)nc1-2,< 1000
14,CCN1[C@H](C)CN(c2ccc3c(n2)-c2sc(-c4ncnn4-c4ccc(F)cc4F)cc2CCO3)C[C@@H]1C,< 1000
15,O=C(NCCO)c1ccc2c(c1)OCCc1sc(-c3ncnn3CC(F)(F)F)nc1-2,< 1000
16,CC(C)n1ncnc1-c1nc2c(s1)CCOc1cc(C3CCN(S(C)(=O)=O)CC3)ccc1-2,< 1000
17,CN(C)CCCOc1ccc(-c2ccc3c(c2)OCCc2sc(-c4ncnn4CC(F)(F)F)nc2-3)cn1,< 1000
18,CC(C)(O)CCc1ccc2c(n1)-c1sc(-c3ncnn3-c3ccc(F)cc3F)cc1CCO2,< 1000
19,NC(=O)Cn1cc(-c2ccc3c(c2)OCCc2sc(-c4ncnn4CC(F)(F)F)nc2-3)cn1,< 1000
20,Cc1nc(-c2nc3c(s2)CCOc2cc([C@H]4CCCNC4)ccc2-3)n(C(C)C)n1,< 1000
21,CN(C)C(=O)Cn1cc(-c2ccc3c(c2)OCCc2sc(-c4ncnn4CC(F)(F)F)nc2-3)cn1,< 1000
22,FC(F)(F)Cn1ncnc1-c1nc2c(s1)CCOc1cc(-c3cnn(CCNC4COC4)c3)ccc1-2,< 1000
23,CC(=O)N1CCN(c2ccc3c(n2)-c2sc(-c4ncnn4-c4ccc(F)cc4F)cc2CCO3)CC1,< 1000

row,SMILES,IC50 [nM]
1,O=C(c1nc2c(s1)CCOc1cc(-c3cn[nH]c3)ccc1-2)N1CCCCC1,< 1000
2,COC[C@@H]1CCCN(C(=O)c2nc3c(s2)CCOc2cc(-c4cn[nH]c4)ccc2-3)C1,< 1000
3,C[C@H](O)C(=O)N1CCN(c2ccc3c(n2)-c2sc(-c4ncnn4-c4ccc(F)cc4F)cc2CCO3)CC1,< 1000
4,CN(CCc1ccccc1)C(=O)c1nc2c(s1)CCOc1cc(-c3cn[nH]c3)ccc1-2,< 1000
5,Cc1nc(-c2nc3c(s2)CCOc2cc(CNC(N)=O)ccc2-3)n(C(C)C)n1,< 1000
6,CC(C)(O)Cn1cc(-c2ccc3c(c2)OCCc2sc(-c4nccn4C4CNC4)nc2-3)cn1,< 1000
7,CC1(C)C(=O)NC(=O)N1c1nc2c(s1)CCOc1ccccc1-2,< 1000
8,CC(C)CCN(C)C(=O)c1nc2c(s1)CCOc1cc(-c3cn[nH]c3)ccc1-2,< 1000
9,Cc1cnc(F)c(-c2ccc3c(c2)-c2nc(-c4ncnn4C(C)C)sc2CCO3)c1,< 1000
10,CC(C)n1ncnc1-c1nc2c(s1)CCOc1cc(O[C@@H](C)C(N)=O)ccc1-2,< 1000
11,CC(C)n1cnnc1-c1nc2c(s1)CCOc1cc(C(=O)Nc3ccon3)ccc1-2,< 1000
12,CC(C)(C)n1nc(N)nc1-c1nc2c(s1)CCOc1cc(-c3cn[nH]c3)ccc1-2,< 1000
13,Cc1nc(-c2nc3c(s2)CCOc2cc(C4CN(C[C@H](O)CO)C4)ccc2-3)n(C(C)C)n1,< 1000
14,CC(C)N(CCO)C(=O)c1nc2c(s1)CCOc1ccc(-c3cnn(C[C@@H](C)O)c3)cc1-2,< 1000
15,CC(C)c1nn(C)c(=O)n1-c1nc2c(s1)CCOc1cc(-c3cnn(CCO)c3)ccc1-2,< 1000
16,CN1CCC(n2ncnc2-c2nc3c(s2)CCOc2cc(-c4cnn(CC(C)(C)O)c4)ccc2-3)CC1,< 1000
17,CC(C)n1ncnc1-c1nc2c(s1)CCOc1ccc(C3CCCC3)cc1-2,< 1000
18,CN(CCc1ccccn1)C(=O)c1nc2c(s1)CCOc1cc(-c3cn[nH]c3)ccc1-2,< 1000
19,COCC(O)CN1CC(c2ccc3c(c2)OCCc2sc(-c4nc(C)nn4C(C)C)nc2-3)C1 (configuration not stated),< 1000
20,NC(=O)c1cnc2c(c1)OCCc1cc(-c3ccc[nH]c3=O)sc1-2,< 1000
21,CS(=O)(=O)N1CC(Nc2ccc3c(n2)-c2sc(-c4ncnn4-c4ccc(F)cc4F)cc2CCO3)C1,< 1000
22,CC(C)n1c(-c2nc3c(s2)CCOc2cc(-c4cnn(CC5(C)COC5)c4)ccc2-3)n[nH]c1=O,< 1000
23,CC(C)n1ncnc1-c1nc2c(s1)CCOc1cc(C3CCN(CC(=O)N(C)C)CC3)ccc1-2,< 1000

row,SMILES,IC50 [nM]
1,CC(CO)n1ncnc1-c1nc2c(s1)CCOc1cc(-c3cnn(CC(C)(C)O)c3)ccc1-2 (configuration not stated),< 1000
2,CN(C[C@H]1CCCO1)C(=O)c1nc2c(s1)CCOc1cc(-c3cn[nH]c3)ccc1-2,< 1000
3,CC(C)n1ncnc1-c1nc2c(s1)CCOc1ccc(-c3c[nH]c(=O)[nH]c3=O)cc1-2,< 1000
4,O=C(c1ccccc1)N1CCN(C(=O)c2nc3c(s2)CCOc2cc(-c4cn[nH]c4)ccc2-3)CC1,< 1000
5,O=C(c1nc2c(s1)CCOc1cc(-c3cn[nH]c3)ccc1-2)N1CCC[C@@H](CO)C1,< 1000
6,Fc1ccc(-n2ncnc2-c2cc3c(s2)-c2nc(N4CCN(CC(F)(F)F)CC4)ccc2OCC3)c(F)c1,< 1000
7,Cc1nc(-c2nc3c(s2)CCOc2cc(-c4cncn4CCO)ccc2-3)n(C(C)C)n1,< 1000
8,CC(C)n1ncnc1-c1nc2c(s1)CCOc1ccc(-c3cccn(CCN4CCOCC4)c3=O)cc1-2,< 1000
9,CC(C)n1ncnc1-c1nc2c(s1)CCOc1cc(-c3cnn(CCOP(=O)(O)O)c3)ccc1-2,< 1000
10,COCC(O)Cn1cc(-c2ccc3c(c2)OCCc2sc(-c4nc(C)nn4C(C)C)nc2-3)cn1 (configuration not stated),< 1000
11,O=C(c1nc2c(s1)CCOc1cc(-c3cn[nH]c3)ccc1-2)N1CCN(c2ccccn2)CC1,< 1000
12,CN(C)S(=O)(=O)N1CCN(C(=O)c2nc3c(s2)CCOc2cc(-c4cn[nH]c4)ccc2-3)CC1,< 1000
13,CC(C)n1ncnc1-c1nc2c(s1)CCOc1ccc(C(O)C(F)(F)F)cc1-2 (configuration not stated),< 1000
14,NC(=O)CNc1ccc2c(n1)-c1sc(-c3ncnn3-c3ccc(F)cc3F)cc1CCO2,< 1000
15,CC(C)n1ncnc1-c1nc2c(s1)CCOc1cc(-c3cnn(C(C)(C)C(=O)NC4CN(C)C4)c3)ccc1-2,< 1000
16,Fc1ccc(-n2ncnc2-c2cc3c(s2)-c2nc(NCCN4CCCC4)ccc2OCC3)c(F)c1,< 1000
17,O=C(c1nc2c(s1)CCOc1cc(-c3cn[nH]c3)ccc1-2)N(CCO)C1CCCC1,< 1000
18,O=C(c1nc2c(s1)CCOc1cc(-c3cn[nH]c3)ccc1-2)N1CCCNCC1,< 1000
19,CC(C)(O)Cn1cc(-c2ccc3c(c2)OCCc2sc(NC(C)(C)CO)nc2-3)cn1,< 1000
20,CC(C)n1ncnc1-c1nc2c(s1)CCOc1cc(C3CCN(CCO)CC3)ccc1-2,< 1000
21,CN(C(=O)c1cc2c(s1)-c1ccc(C(=O)NCCS(C)(=O)=O)cc1OCC2)c1cc(C(=O)NCCO)ccc1Cl,< 1000
22,COc1ccncc1-c1ccc2c(c1)-c1nc(-c3ncnn3C(C)C)sc1CCO2,< 1000
23,O=S1(=O)CCC(n2cc(-c3ccc4c(c3)OCCc3sc(-c5ncnn5CC(F)(F)F)nc3-4)cn2)C1 (configuration not stated),< 1000

row,SMILES,IC50 [nM]
1,CCn1ccc(-c2ccc3c(c2)OCCc2sc(-c4ncnn4C(C)C)nc2-3)cc1=O,< 1000
2,CS(=O)(=O)N1CCN(c2ccc3c(n2)-c2sc(-c4ncnn4-c4ccc(F)cc4F)cc2CCO3)CC1,< 1000
3,Fc1ccc(-n2ncnc2-c2cc3c(s2)-c2nc(NC4CCOCC4)ccc2OCC3)c(F)c1,< 1000
4,OCCNc1ccc2c(n1)-c1sc(-c3ncnn3-c3ccc(F)cc3F)cc1CCO2,< 1000
5,Cc1nc(-c2nc3c(s2)CCOc2cc(C4CN(CCCO)C4)ccc2-3)n(C(C)C)n1,< 1000
6,CN1CCC(N(C)C(=O)c2nc3c(s2)CCOc2cc(-c4cn[nH]c4)ccc2-3)C1 (configuration not stated),< 1000
7,CC(C)(N)Cn1cc(-c2ccc3c(c2)OCCc2sc(-c4ncnn4CC(F)(F)F)nc2-3)cn1,< 1000
8,CC(C)n1ncnc1-c1nc2c(s1)CCOc1ccc(-c3cncc(S(C)(=O)=O)c3)cc1-2,< 1000
9,COc1ncccc1-c1ccc2c(n1)-c1sc(-c3ncnn3-c3ccc(F)cc3F)cc1CCO2,< 1000
10,CN(C)C(=O)N1CCN(C(=O)c2nc3c(s2)CCOc2cc(-c4cn[nH]c4)ccc2-3)CC1,< 1000
11,Fc1ccc(-n2ncnc2-c2cc3c(s2)-c2nc(-c4ccc(N5CCCCC5)nc4)ccc2OCC3)c(F)c1,< 1000
12,CC(C)n1ncnc1-c1nc2c(s1)CCOc1cc(C3CN(S(C)(=O)=O)C3)ccc1-2,< 1000
13,Cc1c[nH]c(=O)c(-c2ccc3c(c2)-c2nc(-c4ncnn4C(C)C)sc2CCO3)c1,< 1000
14,O=C(c1nc2c(s1)CCOc1cc(-c3cn[nH]c3)ccc1-2)N1CCC(F)(F)CC1,< 1000
15,COc1cc(C)c(-c2ccc3c(n2)-c2sc(-c4ncnn4-c4ccc(F)cc4F)cc2CCO3)cn1,< 1000
16,COc1ncccc1-c1ccc2c(c1)-c1nc(-c3ncnn3C(C)C)sc1CCO2,< 1000
17,C[C@@H]1CN(c2ccc3c(n2)-c2sc(-c4ncnn4-c4ccc(F)cc4F)cc2CCO3)C[C@H](C)N1C(=O)C(F)F,< 1000
18,CC(C)n1ncnc1-c1nc2c(s1)CCOc1cc(C3CN(CCS(C)(=O)=O)C3)ccc1-2,< 1000
19,C[C@@H]1CCCN(C(=O)c2nc3c(s2)CCOc2cc(-c4cn[nH]c4)ccc2-3)C1,< 1000
20,O=C(O)CNc1ccc2c(n1)-c1sc(-c3ncnn3-c3ccc(F)cc3F)cc1CCO2,< 1000
21,Cc1nc(-c2nc3c(s2)CCOc2cc([C@@H]4CCCNC4)ccc2-3)n(C(C)C)n1,< 1000
22,Nc1nc(-c2cc3c(s2)-c2ccc(C(=O)NC4COC4)cc2OCC3)n(-c2ccc(F)cc2F)n1,< 1000
23,CC(C)n1ncnc1-c1nc2c(s1)CCOc1cc(C3CCN(CCS(C)(=O)=O)CC3)ccc1-2,< 1000
